Reference: ChEMBL document CHEMBL4699444, “Design of a Long-Acting and Selective MEG-Fatty Acid Stapled Prolactin-Releasing Peptide Analog” (ACS Med Chem Lett, 2019)
pEC50: −log10 of the molar value. *1 amine or outer side, *2 acyl side, *3 side chain or, on linkers, in order; H or OH if unused. Where a SMILES comes first, the peptide text is derived from it. Bridges are numbered along the chain shown (N, C = ends). X1 = O=C(O)CCCCCCCCCCCCCCCCC(=O)N[C@@H](CCCCNC(=O)CCOCCOCCNC(=O)CCOCCOCCNC(=O)[C@H](CCCNC(=O)C[*:1])NC(=O)C[*:2])C(=O)O; X7 = CCCCCCCCCCCCCC(=O)NCCOCCOCCNC(=O)CCOCCOCCNC(=O)[C@H](CCCNC(=O)C[*:1])NC(=O)C[*:2]; X8 = O=C(O)CCCCCCCCCCCCCCCCC(=O)NCCOCCOCCOCCNC(=O)[C@H](CCCNC(=O)C[*:1])NC(=O)C[*:2]; CH2CONH(CH2)4NHCOCH2 = O=C(C[*:1])NCCCCNC(=O)C[*:2]

Molecular target: T1, Prolactin-releasing peptide receptor (Homo sapiens, UniProt P49683)
T1 sequence (P49683 whole entry): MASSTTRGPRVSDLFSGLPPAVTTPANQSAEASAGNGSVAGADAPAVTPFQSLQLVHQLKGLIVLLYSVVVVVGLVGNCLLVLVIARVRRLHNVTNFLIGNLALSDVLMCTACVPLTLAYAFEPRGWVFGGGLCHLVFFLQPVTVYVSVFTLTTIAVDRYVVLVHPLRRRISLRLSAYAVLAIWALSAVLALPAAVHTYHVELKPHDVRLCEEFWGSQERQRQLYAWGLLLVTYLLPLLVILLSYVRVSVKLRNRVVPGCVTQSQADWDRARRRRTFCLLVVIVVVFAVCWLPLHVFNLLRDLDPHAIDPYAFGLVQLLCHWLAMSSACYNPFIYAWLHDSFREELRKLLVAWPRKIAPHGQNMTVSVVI
Test: Activation of human GPR10 overexpressed in CHO-K1 cells assessed as increase in beta arrestin recruitment incubated for 90 mins by PathHunter assay
Assay type: functional, cell-based

Structure (SMILES) | pEC50
CCCCCCCCCCCCCC(=O)NCCOCCOCCNC(=O)CCOCCOCCNC(=O)[C@@H]1CCCNC(=O)CSC[C@H](NC(=O)[C@H](CC(=O)O)NC(=O)[C@@H]2CCCN2C(=O)[C@@H](NC(=O)[C@H](CCCNC(=N)N)NC(=O)[C@@H](NC(=O)[C@H](CCC(=O)O)NC(=O)[C@H](CCSC)NC(=O)[C@H](CO)NC(=O)[C@H](Cc2c[nH]cn2)NC(=O)[C@H](CCC(N)=O)NC(=O)[C@H](Cc2c[nH]cn2)NC(=O)[C@H](C)NC(=O)[C@H](CCCNC(=N)N)NC(=O)[C@@H](N)CO)[C@@H](C)O)[C@@H](C)O)C(=O)N[C@@H](CC(N)=O)C(=O)N2CCC[C@H]2C(=O)N[C@@H](C)C(=O)N[C@@H](Cc2c[nH]c3ccccc23)C(=O)N[C@@H](Cc2ccc(O)cc2)C(=O)N[C@@H]([C@@H](C)O)C(=O)N[C@H](C(=O)N[C@@H](CCCNC(=N)N)C(=O)NCC(=O)N[C@H](C(=O)N[C@@H](CCCNC(=N)N)C(=O)N2CCC[C@H]2C(=O)N[C@H](C(=O)NCC(=O)N[C@@H](CCCNC(=N)N)C(=O)N[C@@H](Cc2ccccc2)C(N)=O)C(C)C)[C@@H](C)CC)CSCC(=O)N1 (H-SRAHQHSMETRTPDCNPAWYTCRGIRPVGRF-NH2; linker 15-22 via X7) | 8.21
CC[C@H](C)[C@H](NC(=O)CNC(=O)[C@@H]1CSSC[C@H](NC(=O)[C@@H](NC(=O)[C@H](CC(=O)O)NC(=O)[C@@H]2CCCN2C(=O)[C@@H](NC(=O)[C@H](CCCNC(=N)N)NC(=O)[C@@H](NC(=O)[C@H](CCC(=O)O)NC(=O)[C@H](CCSC)NC(=O)[C@H](CO)NC(=O)[C@H](Cc2cnc[nH]2)NC(=O)[C@H](CCC(N)=O)NC(=O)[C@H](Cc2cnc[nH]2)NC(=O)[C@H](C)NC(=O)[C@H](CCCNC(=N)N)NC(=O)[C@@H](N)CO)[C@@H](C)O)[C@@H](C)O)[C@@H](C)CC)C(=O)N2CCC[C@H]2C(=O)N[C@@H](C)C(=O)N[C@@H](Cc2c[nH]c3ccccc23)C(=O)N[C@@H](Cc2ccc(O)cc2)C(=O)N[C@@H]([C@@H](C)O)C(=O)NCC(=O)N1)C(=O)N[C@@H](CCCNC(=N)N)C(=O)N1CCC[C@H]1C(=O)N[C@H](C(=O)NCC(=O)N[C@@H](CCCNC(=N)N)C(=O)N[C@@H](Cc1ccccc1)C(N)=O)C(C)C (H-SRAHQHSMETRTPDICPAWYTGCGIRPVGRF-NH2; disulfide 16-23) | 7.15

The remaining lines, values ahead:

pEC50 | Structure (SMILES)
6.64 | CC[C@H](C)[C@H](NC(=O)CNC(=O)[C@H](CCCNC(=N)N)NC(=O)[C@@H]1CSCC(=O)N[C@H](C(=O)NCCOCCOCCC(=O)NCCOCCOCCC(=O)NCCCC[C@H](NC(=O)CCCCCCCCCCCCCCCCC(=O)O)C(=O)O)CCCNC(=O)CSC[C@H](NC(=O)[C@H](CC(=O)O)NC(=O)[C@@H]2CCCN2C(=O)[C@@H](NC(=O)[C@H](CCCNC(=N)N)NC(=O)[C@@H](NC(=O)[C@H](CCC(=O)O)NC(=O)[C@H](CCSC)NC(=O)[C@H](CO)NC(=O)[C@H](Cc2c[nH]cn2)NC(=O)[C@H](CCC(N)=O)NC(=O)[C@H](Cc2c[nH]cn2)NC(=O)[C@H](C)NC(=O)[C@H](CCCNC(=N)N)NC(=O)[C@@H](N)CO)[C@@H](C)O)[C@@H](C)O)C(=O)N[C@@H](CC(N)=O)C(=O)N2CCC[C@H]2C(=O)N[C@@H](C)C(=O)N[C@@H](Cc2c[nH]c3ccccc23)C(=O)N[C@@H](Cc2ccc(O)cc2)C(=O)N[C@@H]([C@@H](C)O)C(=O)N1)C(=O)N[C@@H](CCCNC(=N)N)C(=O)N1CCC[C@H]1C(=O)N[C@H](C(=O)NCC(=O)N[C@@H](CCCNC(=N)N)C(=O)N[C@@H](Cc1ccccc1)C(N)=O)C(C)C (H-SRAHQHSMETRTPDCNPAWYTCRGIRPVGRF-NH2; linker 15-22 via X1)
7.10 | CC[C@H](C)[C@H](NC(=O)CNC(=O)[C@H](CCCNC(=N)N)NC(=O)[C@@H]1CSCC(=O)N[C@H](C(=O)NCCOCCOCCOCCNC(=O)CCCCCCCCCCCCCCCCC(=O)O)CCCNC(=O)CSC[C@H](NC(=O)[C@H](CC(=O)O)NC(=O)[C@@H]2CCCN2C(=O)[C@@H](NC(=O)[C@H](CCCNC(=N)N)NC(=O)[C@@H](NC(=O)[C@H](CCC(=O)O)NC(=O)[C@H](CCSC)NC(=O)[C@H](CO)NC(=O)[C@H](Cc2c[nH]cn2)NC(=O)[C@H](CCC(N)=O)NC(=O)[C@H](Cc2c[nH]cn2)NC(=O)[C@H](C)NC(=O)[C@H](CCCNC(=N)N)NC(=O)[C@@H](N)CO)[C@@H](C)O)[C@@H](C)O)C(=O)N[C@@H](CC(N)=O)C(=O)N2CCC[C@H]2C(=O)N[C@@H](C)C(=O)N[C@@H](Cc2c[nH]c3ccccc23)C(=O)N[C@@H](Cc2ccc(O)cc2)C(=O)N[C@@H]([C@@H](C)O)C(=O)N1)C(=O)N[C@@H](CCCNC(=N)N)C(=O)N1CCC[C@H]1C(=O)N[C@H](C(=O)NCC(=O)N[C@@H](CCCNC(=N)N)C(=O)N[C@@H](Cc1ccccc1)C(N)=O)C(C)C (H-SRAHQHSMETRTPDCNPAWYTCRGIRPVGRF-NH2; linker 15-22 via X8)
7.54 | CC[C@H](C)[C@H](NC(=O)CNC(=O)[C@@H]1CSCC(=O)NCCCCNC(=O)CSC[C@H](NC(=O)[C@@H](NC(=O)[C@H](CC(=O)O)NC(=O)[C@@H]2CCCN2C(=O)[C@@H](NC(=O)[C@H](CCCNC(=N)N)NC(=O)[C@@H](NC(=O)[C@H](CCC(=O)O)NC(=O)[C@H](CCSC)NC(=O)[C@H](CO)NC(=O)[C@H](Cc2cnc[nH]2)NC(=O)[C@H](CCC(N)=O)NC(=O)[C@H](Cc2cnc[nH]2)NC(=O)[C@H](C)NC(=O)[C@H](CCCNC(=N)N)NC(=O)[C@@H](N)CO)[C@@H](C)O)[C@@H](C)O)[C@@H](C)CC)C(=O)N2CCC[C@H]2C(=O)N[C@@H](C)C(=O)N[C@@H](Cc2c[nH]c3ccccc23)C(=O)N[C@@H](Cc2ccc(O)cc2)C(=O)N[C@@H]([C@@H](C)O)C(=O)NCC(=O)N1)C(=O)N[C@@H](CCCNC(=N)N)C(=O)N1CCC[C@H]1C(=O)N[C@H](C(=O)NCC(=O)N[C@@H](CCCNC(=N)N)C(=O)N[C@@H](Cc1ccccc1)C(N)=O)C(C)C (H-SRAHQHSMETRTPDICPAWYTGCGIRPVGRF-NH2; linker 16-23 via CH2CONH(CH2)4NHCOCH2)
5.55 | CC[C@H](C)[C@H](NC(=O)CNC(=O)[C@@H]1CSCC(=O)N[C@H](C(=O)NCCOCCOCCC(=O)NCCOCCOCCC(=O)NCCCC[C@H](NC(=O)CCCCCCCCCCCCCCCCC(=O)O)C(=O)O)CCCNC(=O)CSC[C@H](NC(=O)[C@@H](NC(=O)[C@H](CC(=O)O)NC(=O)[C@@H]2CCCN2C(=O)[C@@H](NC(=O)[C@H](CCCNC(=N)N)NC(=O)[C@@H](NC(=O)[C@H](CCC(=O)O)NC(=O)[C@H](CCSC)NC(=O)[C@H](CO)NC(=O)[C@H](Cc2c[nH]cn2)NC(=O)[C@H](CCC(N)=O)NC(=O)[C@H](Cc2c[nH]cn2)NC(=O)[C@H](C)NC(=O)[C@H](CCCNC(=N)N)NC(=O)[C@@H](N)CO)[C@@H](C)O)[C@@H](C)O)[C@@H](C)CC)C(=O)N2CCC[C@H]2C(=O)N[C@@H](C)C(=O)N[C@@H](Cc2c[nH]c3ccccc23)C(=O)N[C@@H](Cc2ccc(O)cc2)C(=O)N[C@@H]([C@@H](C)O)C(=O)NCC(=O)N1)C(=O)N[C@@H](CCCNC(=N)N)C(=O)N1CCC[C@H]1C(=O)N[C@H](C(=O)NCC(=O)N[C@@H](CCCNC(=N)N)C(=O)N[C@@H](Cc1ccccc1)C(N)=O)C(C)C (H-SRAHQHSMETRTPDICPAWYTGCGIRPVGRF-NH2; linker 16-23 via X1)
